# Like-named read-outs stand apart in the source and are kept apart here.
# Columns and labels:
# [1] = target: Rhesus PDE2A3 (Macaca mulatta, UniProt B3VTJ2); experiment: PDE2 fluorescence polarization (IMAP FP) inhibition assay, rhesus enzyme; type: biochemical, rhesus macaque
# Method in brief: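 IMAP FP (mP from parallel and perpendicular fluorescence against substrate-only control) was read ≥1 h after adding binding reagent. The preceding 60 min room-temperature reaction contained FAM-cAMP (50 nM) and cGMP (1 uM) in pH 7.2 Tris buffer with MgCl2 and DTT. Enzyme was supernatant of sonicated AD293 cells expressing rhesus PDE2A3; compounds were 3-fold titrated, DMSO 1% final.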
# [2] = target: human PDE2A1 (Homo sapiens (Human), UniProt O00408); experiment: IMAP FP PDE selectivity panel, human PDE2A1; type: biochemical
# Method in brief: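 IMAP FP format: substrate 50 nM FAM-cAMP plus 1000 nM cGMP, enzyme (insect-cell GST-tagged human PDE2A1) at ~20% conversion, 60 min reaction at room temperature. Apparent inhibition constants calculated from parallel/perpendicular fluorescence with KM 10,000 nM.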
# [3] = Rhesus PDE2, Lab B, read-out: Rhesus PDE2 Ki (nM) - Lab B
# [4] = Human PDE2, Lab B, read-out: Human PDE2 Ki (nM) - Lab B
# [5] = Rhesus PDE2, Lab A, read-out: Rhesus PDE2 Ki (nM) - Lab A
# [6] = Human PDE2, Lab A, read-out: Human PDE2 Ki (nM) - Lab A
# Sequence of human PDE2A1 (O00408 other isoform, or with tags, fused parts or gaps): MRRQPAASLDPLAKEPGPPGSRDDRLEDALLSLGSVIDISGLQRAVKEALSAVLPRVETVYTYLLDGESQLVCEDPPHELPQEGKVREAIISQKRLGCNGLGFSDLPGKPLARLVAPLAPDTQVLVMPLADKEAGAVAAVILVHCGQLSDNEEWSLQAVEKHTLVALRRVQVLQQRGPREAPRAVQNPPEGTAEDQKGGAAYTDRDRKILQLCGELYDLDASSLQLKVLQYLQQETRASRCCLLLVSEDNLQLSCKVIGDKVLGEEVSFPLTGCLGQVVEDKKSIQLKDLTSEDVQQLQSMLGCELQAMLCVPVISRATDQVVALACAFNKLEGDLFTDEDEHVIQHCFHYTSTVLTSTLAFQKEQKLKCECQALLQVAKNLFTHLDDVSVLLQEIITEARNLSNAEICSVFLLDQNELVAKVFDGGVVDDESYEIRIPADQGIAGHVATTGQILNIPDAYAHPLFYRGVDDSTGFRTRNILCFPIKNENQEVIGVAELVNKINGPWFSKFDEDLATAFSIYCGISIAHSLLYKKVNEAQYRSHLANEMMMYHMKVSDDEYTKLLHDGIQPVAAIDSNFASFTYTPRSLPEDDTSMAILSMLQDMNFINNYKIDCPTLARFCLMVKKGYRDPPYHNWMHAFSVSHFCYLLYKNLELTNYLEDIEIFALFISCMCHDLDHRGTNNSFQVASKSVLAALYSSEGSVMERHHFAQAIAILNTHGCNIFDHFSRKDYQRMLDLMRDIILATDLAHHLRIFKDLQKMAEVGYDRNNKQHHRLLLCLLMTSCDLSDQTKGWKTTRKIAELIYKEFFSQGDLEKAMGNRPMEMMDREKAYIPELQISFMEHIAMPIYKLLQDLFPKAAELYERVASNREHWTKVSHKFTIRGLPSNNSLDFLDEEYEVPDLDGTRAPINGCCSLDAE
# Sequence of Rhesus PDE2A3 (B3VTJ2 1-941): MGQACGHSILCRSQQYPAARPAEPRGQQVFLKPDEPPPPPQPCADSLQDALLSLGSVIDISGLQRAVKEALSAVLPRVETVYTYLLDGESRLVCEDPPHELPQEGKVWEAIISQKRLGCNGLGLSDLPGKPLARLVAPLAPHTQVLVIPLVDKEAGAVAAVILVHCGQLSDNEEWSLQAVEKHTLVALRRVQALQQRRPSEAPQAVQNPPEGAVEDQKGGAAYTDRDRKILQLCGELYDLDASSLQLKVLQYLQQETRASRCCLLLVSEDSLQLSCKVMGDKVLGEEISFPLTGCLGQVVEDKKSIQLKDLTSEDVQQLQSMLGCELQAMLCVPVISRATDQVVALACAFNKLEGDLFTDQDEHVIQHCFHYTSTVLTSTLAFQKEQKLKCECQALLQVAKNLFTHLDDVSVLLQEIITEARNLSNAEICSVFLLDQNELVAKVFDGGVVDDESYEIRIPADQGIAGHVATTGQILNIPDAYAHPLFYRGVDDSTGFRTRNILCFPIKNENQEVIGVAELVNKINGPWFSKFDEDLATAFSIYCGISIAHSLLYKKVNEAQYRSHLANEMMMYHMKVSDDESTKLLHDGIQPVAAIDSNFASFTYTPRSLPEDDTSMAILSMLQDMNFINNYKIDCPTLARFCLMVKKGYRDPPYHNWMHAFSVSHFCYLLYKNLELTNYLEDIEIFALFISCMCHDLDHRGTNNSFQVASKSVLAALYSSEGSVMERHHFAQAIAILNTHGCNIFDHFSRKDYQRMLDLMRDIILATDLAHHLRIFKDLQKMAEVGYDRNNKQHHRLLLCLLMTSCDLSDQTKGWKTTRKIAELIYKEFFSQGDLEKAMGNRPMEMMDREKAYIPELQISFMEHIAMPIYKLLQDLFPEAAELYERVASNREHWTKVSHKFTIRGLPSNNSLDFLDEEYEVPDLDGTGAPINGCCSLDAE
"Ki [1, 3] [nM]","Ki [2, 4] [nM]","Ki [1, 5] [nM]","Ki [2, 6] [nM]",Structure (SMILES)
9.9,10,,,"O=C(N[C@@H](c1ccc(S(F)(F)(F)(F)F)cc1)C1CC1)c1cc(=O)[nH]c(-c2ncccn2)n1 [Example 412, N-{(R)-cyclopropyl[4-(pentafluoro-λ^6-sulfanyl)phenyl]methyl}-6-oxo-1,6-dihydro-2,2′-bipyrimidine-4-carboxamide]"
84,56,,,"CC[C@@H](NC(=O)c1cc(=O)[nH]c(C(C)(C)c2ccc(OC)cc2)n1)c1ccc(OC(F)(F)F)cc1 [Example 505, 2-[1-(4-methoxyphenyl)-1-methylethyl]-6-oxo-N-{(1R)-1-[4-(trifluoromethoxy)phenyl]propyl}-1,6-dihydropyrimidine-4-carboxamide]"
,,146,83,"CCc1ccc(C(C)NC(=O)c2cc(=O)[nH]c(C)n2)cc1 (stereo not shown) [Example 268, N-[1-(4-ethylphenyl)ethyl]-2-methyl-6-oxo-1,6-dihydropyrimidine-4-carboxamide]"
,,22,20,"CC(C)(NC(=O)c1cc(=O)[nH]c(C2CC2)n1)c1ccc(C(F)(F)F)cc1 [Example 293, 2-cyclopropyl-N-{1-methyl-1-[4-(trifluoromethyl)phenyl]ethyl}-6-oxo-1,6-dihydropyrimidine-4-carboxamide]"
,,1.4,1.5,"C[C@@H](NC(=O)c1cc(=O)[nH]c(-c2ccccc2)n1)c1ccc(SC(F)(F)F)cc1 [Example 142, 6-Oxo-2-phenyl-N-[(1R)-1-{4-[(trifluoromethyl)sulfanyl]phenyl}ethyl]-1,6-dihydropyrimidine-4-carboxamide]"
28,33,34,~9.8,"O=C(N[C@@H](c1ccc(C(F)(F)F)c(F)c1)C1CC1)c1cc(=O)[nH]c(-c2ncccn2)n1 [Example 91, N-{(R)-cyclopropyl[3-fluoro-4-(trifluoromethyl)phenyl]methyl}-6-oxo-1,6-dihydro-2,2′-bipyrimidine-4-carboxamide]"
2.5,1.7,,,"Cc1nc(C(=O)N[C@@H](c2ccc(SC(F)(F)F)cc2)C(C)(C)C)cc(=O)[nH]1 [Example 58, (R)-N-(2,2-dimethyl-1-(4-((trifluoromethyl)thio)phenyl)propyl)-2-methyl-6-oxo-1,6-dihydropyrimidine-4-carboxamide]"
0.92,0.8,,,"COc1ccc(Cc2nc(C(=O)N[C@@H](c3ccc(OC(F)(F)F)c(F)c3)C(C)(C)C)cc(=O)[nH]2)cc1F [Example 506, 2-(3-fluoro-4-methoxybenzyl)-N-{(1R)-1-[3-fluoro-4-(trifluoromethoxy)phenyl]-2,2-dimethylpropyl}-6-oxo-1,6-dihydropyrimidine-4-carboxamide]"
,,21,16,"C[C@@H](NC(=O)c1cc(=O)[nH]c(C2CC2)n1)c1ccc(C(F)(F)F)cc1 [Example 11, 2-cyclopropyl-6-oxo-N-{(1R)-1-[4-(trifluoromethyl)phenyl]ethyl}-1,6-dihydropyrimidine-4-carboxamide]"
23,21,,,"CC(C)(C)[C@@H](NC(=O)c1cc(=O)[nH]c(-c2ncccn2)n1)c1ccc(OC(F)F)cc1 [Example 450, N-{(1R)-1-[4-(difluoromethoxy)phenyl]-2,2-dimethylpropyl}-6-oxo-1,6-dihydro-2,2′-bipyrimidine-4-carboxamide]"
5.4,5.2,3.1,,"CC[C@@H](NC(=O)c1cc(=O)[nH]c(C2CC2)n1)c1ccc(SC(F)(F)F)c(F)c1 [Example 246, 2-cyclopropyl-N-[(1R)-1-{3-fluoro-4-[(trifluoromethyl)sulfanyl]phenyl}propyl]-6-oxo-1,6-dihydropyrimidine-4-carboxamide]"
,,72,28,"CCc1ccc(C(C)NC(=O)c2cc(=O)[nH]c(C3CC3)n2)cc1 (stereo not shown) [Example 194, 2-cyclopropyl-N-[1-(4-ethylphenyl)ethyl]-6-oxo-1,6-dihydropyrimidine-4-carboxamide]"
1.2,0.84,,,"CC(C)(C)[C@@H](NC(=O)c1cc(=O)[nH]c(C2CC2)n1)c1ccc(OC(F)(F)F)cc1 [Example 463, 2-cyclopropyl-N-{(1R)-2,2-dimethyl-1-[4-(trifluoromethoxy)phenyl]propyl}-6-oxo-1,6-dihydropyrimidine-4-carboxamide]"
4.8,4.7,5,,"CC(C)[C@@H](NC(=O)c1cc(=O)[nH]c(-c2ncccn2)n1)c1ccc(OC(F)(F)F)c(F)c1 [Example 74, N-{(1R)-1-[3-fluoro-4-(trifluoromethoxy)phenyl]-2-methylpropyl}-6-oxo-1,6-dihydro-2,2′-bipyrimidine-4-carboxamide]"
41,39,19,,"Cc1nc(C(=O)N[C@H](C)c2ccc(C3CC3)cc2)cc(=O)[nH]1 [Example 258, N-[(1R)-1-(4-cyclopropylphenyl)ethyl]-2-methyl-6-oxo-1,6-dihydropyrimidine-4-carboxamide]"
,,38,24,"Cc1nc(C(=O)NC2(c3ccc(C(F)(F)F)cc3)CCC2)cc(=O)[nH]1 [Example 2, 2-methyl-6-oxo-N-{1-[4-(trifluoromethyl)phenyl]cyclobutyl}-1,6-dihydropyrimidine-4-carboxamide]"
1.2,1.4,,,"COc1ccc(Cc2nc(C(=O)N[C@@H](c3ccc(SC(F)(F)F)cc3)C(C)C)cc(=O)[nH]2)cc1F [Example 511, 2-(3-fluoro-4-methoxybenzyl)-N-[(1R)-2-methyl-1-{4-[(trifluoromethyl)sulfanyl]phenyl}propyl]-6-oxo-1,6-dihydropyrimidine-4-carboxamide]"
5.1,3.7,,,"Cc1nc(C(=O)NC(c2ccc(C3(C)CC3)c(F)c2)C(C)(C)C)cc(=O)[nH]1 (single isomer, unassigned) [Example 711, (R)- or (S)-N-(1-(3-fluoro-4-(1-methylcyclopropyl)phenyl)-2,2-dimethylpropyl)-2-methyl-6-oxo-1,6-dihydropyrimidine-4-carboxamide]"
19,27,17,14,"Cc1nc(C(=O)N[C@H](C)c2ccc(S(F)(F)(F)(F)F)cc2)cc(=O)[nH]1 [Example 37, 2-methyl-6-oxo-N-{(1R)-1-[4-(pentafluoro-λ^6-sulfanyl)phenyl]ethyl}-1,6-dihydropyrimidine-4-carboxamide]"
,,19,16,"CC(C)(NC(=O)c1cc(=O)[nH]c(-c2ccccc2)n1)c1ccc(C(F)(F)F)cc1 [Example 280, N-{1-methyl-1-[4-(trifluoromethyl)phenyl]ethyl}-6-oxo-2-phenyl-1,6-dihydropyrimidine-4-carboxamide]"
,,4.3,5.5,"CC[C@@H](NC(=O)c1cc(=O)[nH]c(C2CC2)n1)c1ccc(SC(F)(F)F)cc1 [Example 236, 2-cyclopropyl-6-oxo-N-[(1R)-1-{4-[(trifluoromethyl)sulfanyl]phenyl}propyl]-1,6-dihydropyrimidine-4-carboxamide]"
,,88,55,"O=C(NC1(c2ccc(OC(F)(F)F)cc2)CCC1)c1cc(=O)[nH]c(C2CC2)n1 [Example 300, 2-cyclopropyl-6-oxo-N-{1-[4-(trifluoromethoxy)phenyl]cyclobutyl}-1,6-dihydropyrimidine-4-carboxamide]"
,,29,17,"C[C@@H](NC(=O)c1cc(=O)[nH]c(C2CC2)n1)c1ccc(C(F)(F)F)c(Cl)c1 [Example 232, N-{(1R)-1-[3-chloro-4-(trifluoromethyl)phenyl]ethyl}-2-cyclopropyl-6-oxo-1,6-dihydropyrimidine-4-carboxamide]"
99,81,~78,,"CC(C)(NC(=O)c1cc(=O)[nH]c(-c2ccccc2)n1)c1ccc(SC(F)(F)F)c(F)c1 [Example 361, N-(1-{3-fluoro-4-[(trifluoromethyl)sulfanyl]phenyl}-1-methylethyl)-6-oxo-2-phenyl-1,6-dihydropyrimidine-4-carboxamide]"
,,45,28,"C[C@@H](NC(=O)c1cc(=O)[nH]c(-c2ncccn2)n1)c1ccc(-c2ccccc2)cc1 [Example 287, N-[(1R)-1-biphenyl-4-ylethyl]-6-oxo-1,6-dihydro-2,2′-bipyrimidine-4-carboxamide]"
28,33,28,~8.9,"C[C@@H](NC(=O)c1cc(=O)[nH]c(-c2ncccn2)n1)c1ccc(OC(F)(F)F)cc1F [Example 101, N-{(1R)-1-[2-fluoro-4-(trifluoromethoxy)phenyl]ethyl}-6-oxo-1,6-dihydro-2,2′-bipyrimidine-4-carboxamide]"
31,,39,~8.2,"COCc1nc(C(=O)N[C@H](C)c2ccc(SC(F)(F)F)cc2)cc(=O)[nH]1 [Example 123, 2-(methoxymethyl)-6-oxo-N-[(1R)-1-{4-[(trifluoromethyl)sulfanyl]phenyl}ethyl]-1,6-dihydropyrimidine-4-carboxamide]"
4.2,2.9,,,"CC(C)[C@@H](NC(=O)c1cc(=O)[nH]c(-c2ccccc2)n1)c1ccc(C(F)(F)F)c(F)c1 [Example 383, N-{(1R)-1-[3-fluoro-4-(trifluoromethyl)phenyl]-2-methylpropyl}-6-oxo-2-phenyl-1,6-dihydropyrimidine-4-carboxamide]"

# — patent publication US9815796B2 (Merck Sharp & Dohme Corp., priority 2013, dated 2017)
